Measured values: PMC10303371, “Activity and Selectivity of Novel Chemical Metallic Complexes with Potential Anticancer Effects on Melanoma Cells” (Molecules, 2023)
Read-outs that look alike come from different tables or passages of the source.

Columns and labels:
MeWo cells [1] = experiment: MTT cell viability assay on 2D MeWo culture; type: cell-based, human; conditions: for inhibition of MeWo viability / decrease in cell viability: 20 μM; for inhibition of MeWo viability / change of cell viability (in words): 24 h
Protocol: (§1) IC50 values for MeWo cells were calculated with GraphPad Prism software (6.0 for Windows, LLC, San Diego, CA, USA).
(§2) Then, the supernatant was removed and 100 μL of dimethyl sulfoxide (DMSO) was added to solubilize formazan crystals. The absorbance was measured at 490 nm using a microplate reader (Infinite F200 PRO, Tecan Group Ltd., Männedorf, Switzerland) Cell metabolic activity was calculated as percentage compared to the control group (considered as 100%), according to Equation (1):(1) % Cell metabolic activity=Abs of sample−Abs blank/Abs of control−Abs blank×100

MeWo cells [2] = experiment: Time-Lapse Live-Cell Imaging of 2D MeWo culture; type: cell-based, human; conditions: 20 μM
Protocol: MeWo culture was performed using Time-Lapse Live-Cell Imaging System formed by a Bold Line Top Stage Incubator for 35 mm Petri dishes (H301-T UNIT BL; Okolab S.r.l., Pozzuoli, Italy), that allows the acquisition of the same field along the culture time in fixed culture point mapped by the fully automated stage. The incubator has independent control of gas (CO2/O2), humidity and temperature, and ensured an environment with 37 °C of temperature and 5% of CO2 atmosphere. The system allows acquisition in brightfield and fluorescence. All images of different fields within the culture chamber were achieved automatically, using Olympus IX83 time-lapse microscope by motorized stage and CCD monochrome camera (mod. XM10, Olympus, Segrate, Italy), and with all operations under the control of the X-Excellence advanced live-cell imaging software (version 2.0, Olympus Inc., Segrate, Italy). In our case, cell images were captured in brightfield using a 10× objective every 4 h intervals. The related videos reported in Supplementary Materials were generated with windows movie maker software (version 2.0, Microsoft) starting from the acquired frames.

MeWo cells [3] = experiment: Apoptosis by Annexin V / propidium iodide flow cytometry; type: cell-based, human; conditions: 20 μM
Protocol: Annexin V FITC Apoptosis Detection Kit (Cat. […] Then, 5 μL of Annexin V FITC Conjugate and 5 μL of propidium Iodide PE Solution were added to 100 μL of the cell suspension (1 × 10^6 cells/mL). After incubation for 15 min at room temperature with light protection, 400 μL of Annexin V Binding Solution was added for flow cytometry analysis.

MeWo cells [4] = experiment: Cell cycle analysis by DNA content (propidium iodide) flow cytometry; type: cell-based, human; conditions: 48 h
Protocol: Human melanoma cells (MeWo, HTB-65^TM; ATCC®, Manassas, VA, USA) were grown in 24-well plates at a density of 1 × 10^4 cells/cm^2 and treated with AuM1 (at 1 μM and 5 μM) and AgM1 (at 10 μM and 20 μM) for 24 h and 48 h. After treatments, cells were transferred in 15 mL polypropylene V-bottomed tubes, rinsed twice in ice cold PBS, and stained in freshly prepared PBS buffer containing 1 mg/mL propidium iodide (PI) (Merck Life Science S.r.l., Milan, Italy), 110,000 U/mL RNase A (Merck) and 0.1% Triton X-100 (Merck Life Science S.r.l., Milan, Italy). Cells were incubated 30 min at 4 °C in the dark and analysed with a BD FACSVerse flow cytometer (Becton Dickinson, BD, Franklin Lakes, NJ, USA) counting 1 × 10^4 events per sample. G1, S and G2/M cell cycle phase percentages were analysed by ModFit LT software (version 3.0).

histone H2AX = experiment: Western blot of histone H2AX phosphorylation in MeWo cells; type: cell-based, human; conditions: 20 μM
Protocol: (§3) Human melanoma cells (MeWo; ATCC®, HTB-65^TM) were grown in 100 mm Petri Dishes at a density of 1.5 × 10^4 cells/cm^2 and treated with 20 μM of AuM1 (5′-15′-30′-1 h) and AgM1 (5′-15′-30′-1 h-24 h). After treatments, cells were harvested and lysed in RIPA buffer (NaCl 150 mM, 1% triton X-100 pH 8.0, 0.5% sodium deoxycholate, 0.1% SDS, 50 mM Tris, pH 8.0), supplemented with protease inhibitors cocktail and phosphatase inhibitors (Merck), 1 h on ice. Lysates were then centrifuged for 30 min at 15,000× g and supernatant were transferred to a new 1.5 mL tube. Protein amount was determined by Bradford assay (Bio-Rad, Hercules, CA, USA) and 15 μg of total protein extracts were separated by SDS–PAGE gels and transferred onto nitrocellulose membranes. […] Immunoreactivity was detected by sequential incubation with appropriate horseradish peroxidase-conjugated secondary antibodies (Merck) for 1 h at room temperature and Pierce ECL detection reagents (Thermo Scientific, Rockford, IL, USA) on an X-ray film. […] The area under the curves, each relative to a band, was determined and the background was subtracted from the calculated values.

p-ERK 1/2 = experiment: Western blot of ERK phosphorylation in MeWo cells; type: cell-based, human; conditions: 20 μM
Protocol: as §3

[5] = Hydrolytic stability by 1H-NMR; type: physicochemical; conditions: D2O-10% of DMSO-d6; 0 h, 2 h, 4 h, 24 h, 48 h and 72 h
From the text: 10% of DMSO-d6, following the procedure in ref. [23]. Figures S3–S6 show the 1H-NMR […]
time. These preliminary studies can be reasonably extended to all synthesized complexes because they have a similar structure. Thus, it is possible to affirm th at these complexes are […]
(1 picture or pasted object on this page, not shown here)

HaCaT cells = experiment: MTT selectivity study on HaCaT non-cancerous cell line; type: cell-based, human; conditions: 5 μM, 48 h
Protocol: as §1, §2

MeWo 3D culture = experiment: Live/Dead assay on 3D MeWo cultures (spheroids); type: cell-based, human; conditions: 3D MeWo culture, 5 μM, 24 h, semi-quantitative
From the text: High density 3D cultures were obtained using 96-well ultra-low attachment microplates (Corning, Manassas, VA, USA). Briefly, MeWo cells were resuspended at a density of 500.000 cells/mL. […] For the cell viability assay, the average value of 10 3D-systems (n = 3) were considered.
Cell viability of 3D cultures was detected by fluorescence Live/Dead assay after cellular aggregate formation. Calcein AM solution (Cat. no C1359, Sigma-Aldrich) was used to stain live cells, while cell membrane-impermeable Ethidium homodimer I solution (Cat. no E1903, Sigma-Aldrich) for nuclei of dead cells.

Thermal stability = type: physicochemical; conditions: decompose before melting
[6] = MeWo, MTT, 24 h of treatment, read-out: IC50 24 h
[7] = MeWo, MTT, 48 h of treatment, read-out: IC50 48 h
[8] = 5 μM, screening of derivatives, MTT

Row | SMILES | inhibition of MeWo viability (MeWo cells [1]) | reduction of cell viability (MeWo cells [1]; MeWo, 10 μM, 48 h) | decrease in cell viability (MeWo cells [1]; MeWo, 48 h) | IC50 (MeWo cells [1]; [6]) [µM] | IC50 (MeWo cells [1]; [7]) [µM] | time of treatment after which cell death was observed (MeWo cells [2]) [h] | hydrolytic stability (1H-NMR spectra over time) [5] | red signal (dead cells), Live/Dead assay (MeWo 3D culture) [%] | also measured
1 | C[n+]1ccn(CC(O)c2ccccc2)[c]1[Ag-][I] (racemic) [AgL20] | able to inhibit MeWo viability | about 10% | more than 50% | ~19.4 | 18.3 | > 96 |  |  | change of cell viability (in words) (MeWo cells [1]; MeWo, 10 μM): apparent increase in cell viability
2 | C[n+]1c(Cl)c(Cl)n(CC(O)c2ccccc2)[c]1[Ag-][I] (racemic) [AgM1] | able to inhibit MeWo viability | about 10% | more than 50% | 15.4 | 14.8 | 96 |  |  | reduction in cell viability (MeWo cells [1]; MeWo, 1 μM, 48 h): 30%; Minimum Inhibitory Concentration (MIC) (MeWo cells [1]; MeWo, 48 h): 1 µM; apoptotic cells (MeWo cells [3]; 96 h of treatment): ~6.7%; cell cycle progression (MeWo cells [4]; 20 μM): G0/G1 phase cell cycle arrest; phosphorylation of histone H2AX (histone H2AX; at 5'-30'-1 h): significantly increase; ERK phosphorylation (p-ERK) (p-ERK 1/2): pronounced and significant decrease
3 | C[n+]1ccn(CC(O)c2ccccc2)[c]1[Au-][Cl] (racemic) [AuL20] | able to inhibit MeWo viability | about 10% | 25% | ~24.6 | 31.1 | > 40 |  |  | change of cell viability (in words) (MeWo cells [1]; MeWo, 10 μM): apparent increase in cell viability
4 | C[n+]1c(Cl)c(Cl)n(CC(O)c2ccccc2)[c]1[Au-][Cl] (racemic) [AuM1] | able to inhibit MeWo viability |  | more than 50% | 5.48 | 3.12 | 8 | no changes are observed | 45 | MeWo viability (MeWo cells [1]; 5 μM, 48 h): 30%; MeWo viability reduction (MeWo cells [1]; 5 μM, 48 h): 70%; reduction of cell viability (MeWo cells [1]; MeWo, 48 h, concentration not restated, by context 10 μM): 95%; apoptotic cells (MeWo cells [3]; 8 h of exposure, control 11.7%): 63.8%; cell cycle progression (MeWo cells [4]; 5 μM): G0/G1 phase cell cycle arrest; phosphorylation of histone H2AX (histone H2AX; already after 5 min (5'-15'-30'-1 h)): significant and marked increase; HaCaT viability (HaCaT cells): 70%; selectivity MeWo vs HaCaT (in words) (HaCaT cells): most selective; ERK phosphorylation (p-ERK) (p-ERK 1/2): pronounced and significant decrease
5 | Cn1c(Cl)c(Cl)[n+](CC(O)c2ccccc2)[c]1[Ag-][O]C(=O)CNC(=O)OC(C)(C)C (stereo not drawn) [AgM1Gly] |  |  |  |  |  |  | no changes are observed |  | thermally stable up to temperature (Thermal stability): around 150 °C
6 | CC(C)(C)OC(=O)N[C@@H](Cc1ccccc1)C(=O)O.CN1[CH-]N(CC(O)c2ccccc2)C(Cl)=C1Cl.[Au+] [AuM1Phe] |  |  |  |  |  |  | no changes are observed | 60 | 
7 | CC(C)(C)OC(=O)NCC(=O)[O-].[Ag+] [GlyAg, Boc-Glycine silver salt] |  |  |  |  |  |  |  |  | MeWo viability reduction (MeWo cells [1]; [8]): up to 80%
8 | CC(C)(C)OC(=O)N[C@@H](Cc1ccccc1)C(=O)[O-].[Ag+] [PheAg, Boc-L-Phenylalanine silver salt] |  |  |  |  |  |  | no changes are observed | 50 | MeWo viability reduction (MeWo cells [1]; [8]): up to 80%
9 | N.N.[Cl][Pt][Cl] [cisplatin, reference compound] |  |  |  |  |  |  |  |  | inhibition of MeWo cultures (MeWo cells [1]; even at 20 μM): not inhibited
